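Assay format: 96-well plates, 48-hour exposure. GI50: concentration for 50% inhibition of growth. TGI marks complete inhibition of growth.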
Key:
Assay in all cases: NCI tumour cell line growth inhibition, 48 h
SN12C renal = tested on: SN12C renal
HOP-62 NSCLC = tested on: HOP-62 NSCLC
IGROV1 ovarian = tested on: IGROV1 ovarian
NCI-H522 lung = tested on: NCI-H522 lung
UACC-62 melanoma = tested on: UACC-62 melanoma
NCI-H23 lung = tested on: NCI-H23 lung
CCRF-CEM leukemia = tested on: CCRF-CEM leukemia
SW-620 colon = tested on: SW-620 colon
NCI-H460 lung = tested on: NCI-H460 lung
MCF7 breast = tested on: MCF7 breast
CAKI-1 renal = tested on: CAKI-1 renal
HCT-15 colon = tested on: HCT-15 colon
SK-OV-3 ovarian = tested on: SK-OV-3 ovarian
MDA-MB-231 breast = tested on: MDA-MB-231 breast
LOX IMVI melanoma = tested on: LOX IMVI melanoma
MDA-MB-468 breast = tested on: MDA-MB-468 breast
SNB-19 CNS = tested on: SNB-19 CNS
SF-539 CNS = tested on: SF-539 CNS
TK-10 renal = tested on: TK-10 renal
OVCAR-4 ovarian = tested on: OVCAR-4 ovarian
786-0 renal = tested on: 786-0 renal
HCT-116 colon = tested on: HCT-116 colon
SK-MEL-2 melanoma = tested on: SK-MEL-2 melanoma
MDA-MB-435 = tested on: MDA-MB-435
OVCAR-8 ovarian = tested on: OVCAR-8 ovarian
K-562 leukemia = tested on: K-562 leukemia
U251 CNS = tested on: U251 CNS
EKVX NSCLC = tested on: EKVX NSCLC
DU-145 prostate = tested on: DU-145 prostate
HOP-92 NSCLC = tested on: HOP-92 NSCLC
M14 melanoma = tested on: M14 melanoma
RXF 393 renal = tested on: RXF 393 renal
SK-MEL-28 melanoma = tested on: SK-MEL-28 melanoma
SK-MEL-5 melanoma = tested on: SK-MEL-5 melanoma
T-47D breast = tested on: T-47D breast
SF-268 CNS = tested on: SF-268 CNS
SR leukemia = tested on: SR leukemia
UO-31 renal = tested on: UO-31 renal
MOLT-4 leukemia = tested on: MOLT-4 leukemia
A549 NSCLC = tested on: A549 NSCLC
OVCAR-3 ovarian = tested on: OVCAR-3 ovarian
ACHN renal = tested on: ACHN renal
HCC-2998 colon = tested on: HCC-2998 colon
RPMI-8226 leukemia = tested on: RPMI-8226 leukemia
KM12 colon = tested on: KM12 colon
COLO 205 colon = tested on: COLO 205 colon
OVCAR-5 ovarian = tested on: OVCAR-5 ovarian
HT29 colon = tested on: HT29 colon
BT-549 breast = tested on: BT-549 breast
PC-3 prostate = tested on: PC-3 prostate
MALME-3M melanoma = tested on: MALME-3M melanoma
NCI-H226 lung = tested on: NCI-H226 lung
A498 renal = tested on: A498 renal
SF-295 CNS = tested on: SF-295 CNS

## Cc1ccccc1Nc1nnc(-c2c[nH]c3ccccc23)o1
SN12C renal
  GI50: 3.25 µM
  TGI: > 100 µM
HOP-62 NSCLC
  GI50: 3.6 µM
  TGI: > 100 µM
IGROV1 ovarian
  GI50: 2320 nM
  TGI: > 100 µM
NCI-H522 lung
  GI50: 850 nM
  TGI: 6.34 µM
UACC-62 melanoma
  GI50: 1130 nM
  TGI: > 100 µM
NCI-H23 lung
  GI50: 3.38 µM
  TGI: > 100 µM
CCRF-CEM leukemia
  GI50: 2090 nM
  TGI: > 100 µM
SW-620 colon
  GI50: 882 nM
  TGI: > 100 µM
NCI-H460 lung
  GI50: 2880 nM
  TGI: > 100 µM
MCF7 breast
  GI50: 3.02 µM
  TGI: > 100 µM
CAKI-1 renal
  GI50: 897 nM
  TGI: > 100 µM
HCT-15 colon
  GI50: 1780 nM
  TGI: > 100 µM
SK-OV-3 ovarian
  GI50: 3.52 µM
  TGI: > 100 µM
MDA-MB-231 breast
  GI50: 3.68 µM
  TGI: > 100 µM
LOX IMVI melanoma
  GI50: 2960 nM
  TGI: > 100 µM
MDA-MB-468 breast
  GI50: 2210 nM
  TGI: 7.14 µM
SNB-19 CNS
  GI50: 3.36 µM
  TGI: > 100 µM
SF-539 CNS
  GI50: 1900 nM
  TGI: 5.22 µM
TK-10 renal
  GI50: 7.65 µM
  TGI: > 100 µM
OVCAR-4 ovarian
  GI50: 8.06 µM
  TGI: > 100 µM
786-0 renal
  GI50: 5.58 µM
  TGI: > 100 µM
HCT-116 colon
  GI50: 5.96 µM
  TGI: > 100 µM
SK-MEL-2 melanoma
  GI50: 1160 nM
  TGI: 4.4 µM
MDA-MB-435
  GI50: 298 nM
  TGI: 1130 nM
OVCAR-8 ovarian
  GI50: 3.44 µM
  TGI: > 100 µM
K-562 leukemia
  GI50: 531 nM
  TGI: > 100 µM
U251 CNS
  GI50: 3.18 µM
  TGI: > 100 µM
EKVX NSCLC
  GI50: 4.48 µM
  TGI: > 100 µM
DU-145 prostate
  GI50: 5.47 µM
  TGI: > 100 µM
HOP-92 NSCLC
  GI50: 5.66 µM
  TGI: > 100 µM
M14 melanoma
  GI50: 1320 nM
  TGI: > 100 µM
RXF 393 renal
  GI50: 2250 nM
  TGI: 9.91 µM
SK-MEL-28 melanoma
  GI50: 3.91 µM
  TGI: > 100 µM
SK-MEL-5 melanoma
  GI50: 2320 nM
  TGI: > 100 µM
T-47D breast
  GI50: 12.6 µM
  TGI: > 100 µM
SF-268 CNS
  GI50: 5.15 µM
  TGI: > 100 µM
SR leukemia
  GI50: 527 nM
  TGI: > 100 µM
UO-31 renal
  GI50: 1880 nM
  TGI: > 100 µM
MOLT-4 leukemia
  GI50: 2550 nM
  TGI: > 100 µM
A549 NSCLC
  GI50: 6.09 µM
  TGI: > 100 µM
OVCAR-3 ovarian
  GI50: 889 nM
  TGI: > 100 µM
ACHN renal
  GI50: 4.32 µM
  TGI: > 100 µM
HCC-2998 colon
  GI50: 3.3 µM
  TGI: 15.9 µM
RPMI-8226 leukemia
  GI50: 3.03 µM
  TGI: > 100 µM
KM12 colon
  GI50: 4.6 µM
  TGI: > 100 µM
COLO 205 colon
  GI50: 2220 nM
  TGI: 16.7 µM
OVCAR-5 ovarian
  GI50: 4.13 µM
  TGI: > 100 µM
HT29 colon
  GI50: 2130 nM
  TGI: 11.6 µM
BT-549 breast
  GI50: 3.7 µM
  TGI: > 100 µM
PC-3 prostate
  GI50: 3.41 µM
  TGI: > 100 µM
MALME-3M melanoma
  GI50: 869 nM
  TGI: > 100 µM
NCI-H226 lung
  GI50: 4.44 µM
  TGI: > 100 µM
A498 renal
  GI50: > 100 µM
  TGI: > 100 µM
SF-295 CNS
  GI50: 567 nM
  TGI: 6 µM
